Experimental data reported in US20060189811A1, “Process for producing 1,2,4-triazole compound and intermediate therefor” (FUJIYAKUHIN CO., LTD., priority 2004, published 2006).

System: serum uric acid level
Assay: Serum uric acid level-lowering action
Assay type: in vivo
Settings: male wister rats, oral 0.3 mg/5 mL/Kg in 0.5% MC, blood collected six hours after administration, vs MC group
Experimental: Serum Uric Acid Level-Lowering Action
To male wister rats of 7 weeks old (4 rats per group) was orally administered compulsorily a test substance suspended in 0.5% aqueous solution of methyl cellulose (MC) in such an amount as to provide 0.3 mg/5 mL/Kg by using a stomach sonde. Six hours after the administration of the test substance, a blood sample was collected from the orbital vein. After allowing to stand at room temperature for 1 hour, the blood sample was centrifuged at 2000×g for 10 minutes to collect serum. […] Lowering rate of serum uric acid level (%)=(1-average serum uric acid level of the group administered with test compound/average serum uric acid level of the group administered with MC)×100

Cc1ccc(S(=O)(=O)O)cc1.N#Cc1cc(-c2nc(-c3ccncc3)n[nH]2)ccn1 [Example 2, 5-(2-cyano-4-pyridyl)-3-(4-pyridyl)-1,2,4-triazole p-toluenesulfonate]
Lowering rate of serum uric acid level: 51.1%
